Where two headings read alike, the source gives them in different places.
Key:
CYP2C8 = target: T1, CYP2C8 (Homo sapiens, UniProt P10632); assay: Human liver microsomal CYP450 inhibition, CYP2C8; details: for Type of inhibition, CYP2C8 (Paclitaxel): human liver microsomes; for IC50: human, pooled human liver microsomes, probe paclitaxel
T1 sequence (P10632 1-490): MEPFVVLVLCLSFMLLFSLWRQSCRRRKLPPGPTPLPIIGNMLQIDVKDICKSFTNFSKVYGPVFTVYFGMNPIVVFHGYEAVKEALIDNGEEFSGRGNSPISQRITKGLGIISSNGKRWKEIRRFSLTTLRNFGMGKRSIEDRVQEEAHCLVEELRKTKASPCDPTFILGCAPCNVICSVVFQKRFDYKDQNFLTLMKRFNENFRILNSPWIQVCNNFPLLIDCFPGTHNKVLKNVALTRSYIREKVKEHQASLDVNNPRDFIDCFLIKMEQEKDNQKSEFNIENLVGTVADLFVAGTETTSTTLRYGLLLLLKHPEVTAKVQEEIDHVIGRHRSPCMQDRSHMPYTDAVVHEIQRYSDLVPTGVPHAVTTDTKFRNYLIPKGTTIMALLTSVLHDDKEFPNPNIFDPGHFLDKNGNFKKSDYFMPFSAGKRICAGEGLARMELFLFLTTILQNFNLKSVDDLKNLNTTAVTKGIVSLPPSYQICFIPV
Procedure: In addition, the type of inhibition was also evaluated.
Enzyme kinetic studies of cytochrome P450 isozyme inhibition were conducted using human liver microsomes.
Probe substrate for 2C8 was paclitaxel, probe substrate for 2C9 was diclofenac and for 3A4 probe substrates were midazolam and testosterone.

[1] = Compound depletion in hepatocytes, monkey; assay type: in vitro ADME; details: up to 2 hours, read-out: t½, Compound Depletion in Hepatocytes, Monkey
Procedure: (§1) Fresh hepatocytes were plated onto collagen-coated plates and exposed to test compounds at 1 μM for up to 2 hours. Tissue culture medium was assayed for compound depletion by LC/MS detection. Values in Table 23 represent independent experiments from 5 to 7 donors.

[2] = target: T2, HIV-1 RT E138K mutant enzyme (Human immunodeficiency virus type 1 group M subtype B, UniProt P03366, E737K); assay: biochemical; details: for Average Fold Changes ± Standard Deviation, E138K: Table 4
T2 construct: Antiviral in vitro activity against site-directed mutant HIV-1 RT enzymes
Excerpt: (§2) In Vitro Antiviral Activity Against Additional Mutant HIV RT Enzymes
(§3) The studies are summarized in the text that follows.

[3] = target: T3, HIV-1 RT L1001/K103N (L100I/K103N) mutant enzyme (Human immunodeficiency virus type 1 group M subtype B, UniProt P03366, K702N/L699I); assay: biochemical; details: for Average Fold Changes ± Standard Deviation, L1001/K103N: Table 4
T3 construct: Antiviral in vitro activity against site-directed mutant HIV-1 RT enzymes
Excerpt: as §2, §3

[4] = target: T4, HIV-1 RT L1001 (L100I) mutant enzyme (Human immunodeficiency virus type 1 group M subtype B, UniProt P03366, L699I); assay: biochemical; details: for Average Fold Changes ± Standard Deviation, L1001: Table 4
T4 construct: Antiviral in vitro activity against site-directed mutant HIV-1 RT enzymes
Excerpt: as §2, §3

[5] = target: T5, HIV-1 RT V1081 (V108I) mutant enzyme (Human immunodeficiency virus type 1 group M subtype B, UniProt P03366, V707I); assay: biochemical; details: for Average Fold Changes ± Standard Deviation, V1081: Table 4
T5 construct: Antiviral in vitro activity against site-directed mutant HIV-1 RT enzymes
Excerpt: as §2, §3

CYP3A4 [6] = target: T6, CYP3A4 (Homo sapiens, UniProt P08684); assay: Human liver microsomal CYP450 inhibition, CYP3A4; details: for Ki / Type of inhibition, CYP3A4 (Midazolam) / Type of inhibition, CYP3A4 (Testosterone) / kinact: human liver microsomes; for IC50: pooled human liver microsomes, probe midazolam and testosterone; for type of inhibition of CYP3A4: text b965, substrate not stated
T6 sequence (P08684 whole entry): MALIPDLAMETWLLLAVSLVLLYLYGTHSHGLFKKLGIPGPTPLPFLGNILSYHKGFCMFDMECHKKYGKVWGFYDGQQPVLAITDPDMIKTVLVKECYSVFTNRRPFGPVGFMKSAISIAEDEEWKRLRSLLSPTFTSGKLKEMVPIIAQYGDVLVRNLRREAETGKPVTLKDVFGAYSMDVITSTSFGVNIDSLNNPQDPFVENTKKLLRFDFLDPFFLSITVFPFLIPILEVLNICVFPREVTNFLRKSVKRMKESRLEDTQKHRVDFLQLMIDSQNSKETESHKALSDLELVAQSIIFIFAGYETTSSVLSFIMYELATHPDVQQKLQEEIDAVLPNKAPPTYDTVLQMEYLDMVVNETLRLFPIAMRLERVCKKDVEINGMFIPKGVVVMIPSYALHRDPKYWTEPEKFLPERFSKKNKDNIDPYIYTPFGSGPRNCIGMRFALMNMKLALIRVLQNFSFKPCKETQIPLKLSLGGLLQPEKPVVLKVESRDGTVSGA

CYP1A2 = target: T7, CYP1A2 (Homo sapiens, UniProt P05177); assay: Recombinant CYP450 inhibition, fluorometric, CYP1A2; assay type: in vitro ADME; set-up: from tissue; host or cells: pooled human liver microsomes
T7 sequence (P05177 1-516): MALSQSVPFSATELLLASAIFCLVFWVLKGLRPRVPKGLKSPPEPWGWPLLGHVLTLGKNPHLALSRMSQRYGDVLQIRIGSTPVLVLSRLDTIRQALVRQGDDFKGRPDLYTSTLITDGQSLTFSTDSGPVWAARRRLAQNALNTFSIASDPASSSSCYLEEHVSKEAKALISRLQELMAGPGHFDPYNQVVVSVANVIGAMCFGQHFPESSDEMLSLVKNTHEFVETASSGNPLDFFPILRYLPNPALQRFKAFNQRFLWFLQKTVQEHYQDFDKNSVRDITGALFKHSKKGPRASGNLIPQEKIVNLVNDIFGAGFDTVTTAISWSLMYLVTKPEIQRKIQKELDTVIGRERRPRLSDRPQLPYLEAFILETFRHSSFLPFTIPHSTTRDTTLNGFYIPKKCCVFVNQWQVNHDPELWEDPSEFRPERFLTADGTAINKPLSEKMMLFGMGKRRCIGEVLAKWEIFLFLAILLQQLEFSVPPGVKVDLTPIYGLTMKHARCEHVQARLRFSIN
Procedure: (§4) Compounds were assayed using recombinant human microsomal proteins with fluorometric substrates. Signal was measured with a Fusion plate reader utilizing the appropriate excitation and emission wavelength set to detect the specific metabolite: […]

CYP3A4 [7] = target: T6, CYP3A4; assay: Recombinant CYP450 inhibition, fluorometric, CYP3A4; assay type: in vitro ADME; set-up: from tissue; host or cells: pooled human liver microsomes
Procedure: as §4

[8] = Compound depletion in hepatocytes, dog; assay type: in vitro ADME; details: up to 2 hours, read-out: t½, Compound Depletion in Hepatocytes, Dog
Procedure: as §1

CYP2B6 = target: T8, CYP2B6 (Homo sapiens, UniProt P20813); assay: Recombinant CYP450 inhibition, fluorometric, CYP2B6; assay type: in vitro ADME; set-up: from tissue; host or cells: pooled human liver microsomes; details: read-out: percentage of inhibition at the highest concentration tested, CYP2B6
T8 sequence (P20813 1-491): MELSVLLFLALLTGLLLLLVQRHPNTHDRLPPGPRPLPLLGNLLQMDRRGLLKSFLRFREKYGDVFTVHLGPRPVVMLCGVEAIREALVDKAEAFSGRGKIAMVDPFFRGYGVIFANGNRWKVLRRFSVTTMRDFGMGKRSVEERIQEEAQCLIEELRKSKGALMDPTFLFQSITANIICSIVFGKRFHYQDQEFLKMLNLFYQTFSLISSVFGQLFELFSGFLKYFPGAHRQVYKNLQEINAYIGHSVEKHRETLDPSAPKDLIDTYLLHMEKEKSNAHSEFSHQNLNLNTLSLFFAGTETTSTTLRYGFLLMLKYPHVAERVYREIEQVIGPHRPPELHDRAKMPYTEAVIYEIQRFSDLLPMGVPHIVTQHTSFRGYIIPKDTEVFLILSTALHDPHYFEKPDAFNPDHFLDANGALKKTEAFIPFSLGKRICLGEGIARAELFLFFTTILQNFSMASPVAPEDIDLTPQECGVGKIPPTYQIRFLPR
Procedure: as §4

[9] = CYP3A4 (Testosterone), time dependent inhibition
[10] = fresh hepatocytes plated on collagen-coated plates

CO[P@](=O)(c1cc(C)cc(/C=C/C#N)c1)c1c(C(N)=O)[nH]c2ccc(Cl)c(F)c12 [Compound I, (2-Carbamoyl-5-chloro-4-fluoro-1H-indol-3-yl)-[3-((E)-2-cyano-vinyl)-5-methyl-phenyl]-(R)-phosphinic acid methyl ester]
Ki (CYP2C8): 1.1 µM | Type of inhibition, CYP2C8 (Paclitaxel) (CYP2C8): competitive inhibition | Type of inhibition, CYP2C8 (Paclitaxel) (CYP2C8; listed as compound I): competitive inhibition | IC50 (CYP2C8): < 10 µM | half-life at 1 μM ([1]; hepatocytes): 63 ± 40 min | IC50 [2]: 4.67 ± 0.91 µM | Average Fold Changes ± Standard Deviation, E138K [2]: 15.5 ± 6.8 fold | IC50 [3]: 0.43 ± 0.33 µM | Average Fold Changes ± Standard Deviation, L1001/K103N [3]: 2.4 ± 1.2 fold | IC50 [4]: 0.16 ± 0.03 µM | Average Fold Changes ± Standard Deviation, L1001 [4]: 0.5 ± 0.2 fold | IC50 [5]: 1.2 ± 0.71 µM | Average Fold Changes ± Standard Deviation, V1081 [5]: 4.0 ± 5.3 fold | Ki (CYP3A4 [6]; [9]): 0.14 µM | Type of inhibition, CYP3A4 (Midazolam) (CYP3A4 [6]): mechanism-based inhibition | Type of inhibition, CYP3A4 (Testosterone) (CYP3A4 [6]): mechanism-based inhibition | Ki (CYP3A4 [6]; human, 3A4, Example 18 table): 0.36 µM | kinact (CYP3A4 [6]; human, probe midazolam): 0.0012 s⁻¹ | Ki (CYP3A4 [6]; human, probe midazolam, CYP3A4 (Midazolam), time dependent inhibition): 0.18 µM | kinact (CYP3A4 [6]; human, probe testosterone): 0.00055 s⁻¹ | IC50 (CYP3A4 [6]; human): < 10 µM | type of inhibition of CYP3A4 (CYP3A4 [6]): mechanism based inhibition | inhibition at 20 µM (CYP1A2; human, recombinant enzyme, 20 μM, read-out: percentage of inhibition at the highest concentration tested, CYP1A2): 17.5% | IC50 (CYP3A4 [7]): 1.46 ± 0.39 µM | half-life at 1 μM ([8]; hepatocytes): 28 ± 14 min | inhibition at 20 µM (CYP2B6; recombinant enzyme): 21.6%

CO[P@](=O)(c1cc(C)cc(/C=C/C#N)c1)c1c(C(N)=O)[nH]c2ccc(Cl)cc12 [Compound III, (2-Carbamoyl-5-chloro-1H-indol-3-yl)-[3-((E)-2-cyano-vinyl)-5-methyl-phenyl]-(R)-phosphinic acid methyl ester]
Ki (CYP2C8): 0.66 µM | Type of inhibition, CYP2C8 (Paclitaxel) (CYP2C8): competitive inhibition | Type of inhibition, CYP2C8 (Paclitaxel) (CYP2C8; listed as compound III): competitive inhibition | IC50 (CYP2C8): < 10 µM | half-life at 1 μM [1, 10]: 52 ± 24 min | IC50 [2]: 2.99 ± 0.18 µM | Average Fold Changes ± Standard Deviation, E138K [2]: 13.7 ± 1.9 fold | IC50 [3]: 0.4 ± 0.26 µM | Average Fold Changes ± Standard Deviation, L1001/K103N [3]: 1.8 ± 0.8 fold | IC50 [4]: 0.13 ± 0.06 µM | Average Fold Changes ± Standard Deviation, L1001 [4]: 0.6 ± 0.6 fold | IC50 [5]: 0.83 ± 0.35 µM | Average Fold Changes ± Standard Deviation, V1081 [5]: 3.8 ± 3.8 fold | Ki (CYP3A4 [6]; CYP3A4 (Midazolam), time dependent inhibition): 0.06 µM | Ki (CYP3A4 [6]; [9]): 0.21 µM | Type of inhibition, CYP3A4 (Midazolam) (CYP3A4 [6]): mechanism-based inhibition | Type of inhibition, CYP3A4 (Testosterone) (CYP3A4 [6]): mechanism-based inhibition | kinact (CYP3A4 [6]; human, probe midazolam): 0.001 s⁻¹ | kinact (CYP3A4 [6]; human, probe testosterone): 0.000833 s⁻¹ | IC50 (CYP3A4 [6]; human): < 10 µM | type of inhibition of CYP3A4 (CYP3A4 [6]): mechanism based inhibition | IC50 (CYP1A2; highest concentration tested 20 μM): 17.6 ± 2.06 µM | IC50 (CYP3A4 [7]; recombinant, highest concentration tested 10 μM, read-out: IC50, CYP3A4): 2.86 ± 0.78 µM | half-life at 1 μM [8, 10]: 21 ± 10 min | inhibition at 20 µM (CYP2B6; recombinant human CYP2B6 microsomal protein): 22.9%
